{"source": "PubChem BioAssay AID1918994", "about": "(Molecular Pharmacology Branch, DTP, NCI, 2023);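 also: spheroids exposed to compounds for seven days after three days of growth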", "system": "292921-168-R-J2-PDC complex spheroid growth", "assay": "Anticancer human tumor 292921-168-R-J2-PDC patient-derived pancreatic carcinoma cell line growth inhibition [AhR]", "details": "for IC50: curve of first compound; for viability, T/C: stronger effect = lower value", "procedure,_shortened": "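Complex tumor spheroids co-cultured with HUVEC and human MSC stroma; AhR antagonists tested in combination with standard-of-care and investigational agents. Top concentration at or near clinical Cmax (else 10 microM), half-log dilutions; growth expressed as percent test/control.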"}
{"smiles": "CC(C)c1c(-c2ccccc2)nc2c(C#N)c[nH]n2c1=O", "note": "+ Cc1cncc(-c2nc(NCCc3c[nH]c4ccccc34)c3ncn(C(C)C)c3n2)c1", "values": [{"measurement": "IC50", "setting": "second compound 0.1 µM", "result": "> 10", "unit": "µM"}, {"measurement": "IC50", "setting": "second compound 0.316 µM", "result": "> 10", "unit": "µM"}, {"measurement": "IC50", "setting": "second compound 1 µM", "result": "> 10", "unit": "µM"}, {"measurement": "IC50", "setting": "second compound 3.16 µM", "result": "> 10", "unit": "µM"}, {"measurement": "IC50", "setting": "second compound 10 µM", "result": 0.386, "unit": "µM"}, {"measurement": "viability, T/C", "setting": "second compound 0.1 µM, first compound 0.0316 µM", "result": 103, "unit": "%"}, {"measurement": "viability, T/C", "setting": "second compound 0.1 µM, first compound 0.1 µM", "result": 95.1, "unit": "%"}, {"measurement": "viability, T/C", "setting": "second compound 0.1 µM, first compound 0.316 µM", "result": 89.7, "unit": "%"}, {"measurement": "viability, T/C", "setting": "second compound 0.1 µM, first compound 1 µM", "result": 98.8, "unit": "%"}, {"measurement": "viability, T/C", "setting": "second compound 0.1 µM, first compound 3.16 µM", "result": 97.4, "unit": "%"}, {"measurement": "viability, T/C", "setting": "second compound 0.1 µM, first compound 10 µM", "result": 97.2, "unit": "%"}, {"measurement": "viability, T/C", "setting": "second compound 0.316 µM, first compound 0.0316 µM", "result": 98.7, "unit": "%"}, {"measurement": "viability, T/C", "setting": "second compound 0.316 µM, first compound 0.1 µM", "result": 98.8, "unit": "%"}, {"measurement": "viability, T/C", "setting": "second compound 0.316 µM, first compound 0.316 µM", "result": 95.8, "unit": "%"}, {"measurement": "viability, T/C", "setting": "second compound 0.316 µM, first compound 1 µM", "result": 99.8, "unit": "%"}, {"measurement": "viability, T/C", "setting": "second compound 0.316 µM, first compound 3.16 µM", "result": 100, "unit": "%"}, {"measurement": "viability, T/C", "setting": "second compound 0.316 µM, first compound 10 µM", "result": 92.7, "unit": "%"}, {"measurement": "viability, T/C", "setting": "second compound 1 µM, first compound 0.0316 µM", "result": 91.2, "unit": "%"}, {"measurement": "viability, T/C", "setting": "second compound 1 µM, first compound 0.1 µM", "result": 85.6, "unit": "%"}, {"measurement": "viability, T/C", "setting": "second compound 1 µM, first compound 0.316 µM", "result": 88.9, "unit": "%"}, {"measurement": "viability, T/C", "setting": "second compound 1 µM, first compound 1 µM", "result": 83.5, "unit": "%"}, {"measurement": "viability, T/C", "setting": "second compound 1 µM, first compound 3.16 µM", "result": 75.4, "unit": "%"}, {"measurement": "viability, T/C", "setting": "second compound 1 µM, first compound 10 µM", "result": 78.1, "unit": "%"}, {"measurement": "viability, T/C", "setting": "second compound 3.16 µM, first compound 0.0316 µM", "result": 76.4, "unit": "%"}, {"measurement": "viability, T/C", "setting": "second compound 3.16 µM, first compound 0.1 µM", "result": 76.3, "unit": "%"}, {"measurement": "viability, T/C", "setting": "second compound 3.16 µM, first compound 0.316 µM", "result": 79, "unit": "%"}, {"measurement": "viability, T/C", "setting": "second compound 3.16 µM, first compound 1 µM", "result": 67.1, "unit": "%"}, {"measurement": "viability, T/C", "setting": "second compound 3.16 µM, first compound 3.16 µM", "result": 65.3, "unit": "%"}, {"measurement": "viability, T/C", "setting": "second compound 3.16 µM, first compound 10 µM", "result": 62, "unit": "%"}, {"measurement": "viability, T/C", "setting": "second compound 10 µM, first compound 0.0316 µM", "result": 51, "unit": "%"}, {"measurement": "viability, T/C", "setting": "second compound 10 µM, first compound 0.1 µM", "result": 50.1, "unit": "%"}, {"measurement": "viability, T/C", "setting": "second compound 10 µM, first compound 0.316 µM", "result": 56.2, "unit": "%"}, {"measurement": "viability, T/C", "setting": "second compound 10 µM, first compound 1 µM", "result": 46.1, "unit": "%"}, {"measurement": "viability, T/C", "setting": "second compound 10 µM, first compound 3.16 µM", "result": 43.9, "unit": "%"}, {"measurement": "viability, T/C", "setting": "second compound 10 µM, first compound 10 µM", "result": 42.6, "unit": "%"}]}
